Molecules are shown by their SMILES.

In this experiment the test system is MV-4-11 cells. As to the kind of experiment: Gene expression microarray analysis (Affymetrix PrimeView) and GSEA. It counts as cell-based, human. On the set-up: RFU PODN (11730768_x_at) / Fold change /veh PODN (11730768_x_at) / RFU LINC00158 (11744669_a_at) / Fold change /veh LINC00158 (11744669_a_at) / RFU DUSP10 (11751237_a_at) / Fold change /veh DUSP10 (11751237_a_at) / RFU ID3 (11757404_x_at) / Fold change /veh ID3 (11757404_x_at) / RFU PLEKHG5 (11737974_s_at) / Fold change /veh PLEKHG5 (11737974_s_at) / RFU LRRC4B (11730491_at) / Fold change /veh LRRC4B (11730491_at) / RFU GIMAP4 (11747438_a_at) / Fold change /veh GIMAP4 (11747438_a_at) / RFU KRT8 (11758183_x_at) / Fold change /veh KRT8 (11758183_x_at) / RFU CNN1 (11734310_a_at) / Fold change /veh CNN1 (11734310_a_at) / RFU VPS37D (11726825_at) / Fold change /veh VPS37D (11726825_at) / RFU C10orf10 (11716522_x_at) / Fold change /veh C10orf10 (11716522_x_at) / RFU KIR2DL2 /// KIR2DL4 /// KIR2DL5A /// KIR2DL5B /// KIR2DS1 /// KIR2DS2 /// KIR2DS3 /// KIR2DS4 /// KIR3DL3 /// KIR3DL3 /// KIR3DS1 (11738374_at) / Fold change /veh KIR2DL2 /// KIR2DL4 /// KIR2DL5A /// KIR2DL5B /// KIR2DS1 /// KIR2DS2 /// KIR2DS3 /// KIR2DS4 /// KIR3DL3 /// KIR3DL3 /// KIR3DS1 (11738374_at) / RFU C1QL1 (11718748_at) / Fold change /veh C1QL1 (11718748_at) / RFU TMPRSS4 (11747572_a_at) / Fold change /veh TMPRSS4 (11747572_a_at) / RFU HAMP (11756126_x_at) / Fold change /veh HAMP (11756126_x_at) / RFU RNFT2 (11725882_a_at) / Fold change /veh RNFT2 (11725882_a_at) / RFU NR4A2 (11747474_a_at) / Fold change /veh NR4A2 (11747474_a_at) / RFU ABCC12 (11746883_a_at) / Fold change /veh ABCC12 (11746883_a_at) / RFU TMEM136 (11760407_x_at) / Fold change /veh TMEM136 (11760407_x_at) / RFU CLDN22 /// WWC2 (11732394_at) / Fold change /veh CLDN22 /// WWC2 (11732394_at) / RFU HLA-DPB1 (11760878_x_at) / Fold change /veh HLA-DPB1 (11760878_x_at) / RFU SPINT1 (11716480_a_at) / Fold change /veh SPINT1 (11716480_a_at) / RFU GAP43 (11754022_s_at) / Fold change /veh GAP43 (11754022_s_at) / RFU A4GNT (11735810_at) / Fold change /veh A4GNT (11735810_at) / RFU PRB3 (11715151_x_at) / Fold change /veh PRB3 (11715151_x_at) / RFU TUBB4B (11761932_at) / Fold change /veh TUBB4B (11761932_at) / RFU CAPN14 (11732068_a_at) / Fold change /veh CAPN14 (11732068_a_at) / RFU TMCC2 (11721928_a_at) / Fold change /veh TMCC2 (11721928_a_at) / RFU IRGQ (11745062_a_at) / Fold change /veh IRGQ (11745062_a_at) / RFU FAM174B (11720279_a_at) / Fold change /veh FAM174B (11720279_a_at) / RFU TMPRSS4 (11748680_a_at) / Fold change /veh TMPRSS4 (11748680_a_at) / RFU FAM212B (11763350_a_at) / Fold change /veh FAM212B (11763350_a_at) / RFU PLEKHG5 (11743358_a_at) / Fold change /veh PLEKHG5 (11743358_a_at) / RFU ZSCAN30 (11745921_a_at) / Fold change /veh ZSCAN30 (11745921_a_at) / RFU CMKLR1 (11741424_a_at) / Fold change /veh CMKLR1 (11741424_a_at) / RFU LOC101060620 /// MAPK8IP1 (11723275_at) / Fold change /veh LOC101060620 /// MAPK8IP1 (11723275_at) / RFU SPTSSB (11747773_x_at) / Fold change /veh SPTSSB (11747773_x_at) / RFU PRSS12 (11739890_at) / Fold change /veh PRSS12 (11739890_at) / RFU BIN1 (11741810_x_at) / Fold change /veh BIN1 (11741810_x_at) / RFU WNT11 (11732464_a_at) / Fold change /veh WNT11 (11732464_a_at) / RFU C10orf10 (11716521_a_at) / Fold change /veh C10orf10 (11716521_a_at) / RFU C5orf56 (11738089_at) / Fold change /veh C5orf56 (11738089_at) / RFU CYB561 (11721691_x_at) / Fold change /veh CYB561 (11721691_x_at) / RFU ANKRD19P (11752326_a_at) / Fold change /veh ANKRD19P (11752326_a_at) / RFU OR2T12 /// OR2T33 /// OR2T8 (11738714_s_at) / Fold change /veh OR2T12 /// OR2T33 /// OR2T8 (11738714_s_at) / RFU VCAN (11748164_a_at) / Fold change /veh VCAN (11748164_a_at) / RFU JSRP1 (11732532_at) / Fold change /veh JSRP1 (11732532_at) / RFU KRTAP10-11 (11738290_x_at) / Fold change /veh KRTAP10-11 (11738290_x_at) / RFU MYO3A (11730013_a_at) / Fold change /veh MYO3A (11730013_a_at) / RFU EBF3 (11725865_a_at) / Fold change /veh EBF3 (11725865_a_at) / RFU CAMK2N1 (11719241_x_at) / Fold change /veh CAMK2N1 (11719241_x_at) / RFU C5orf56 (11738088_a_at) / Fold change /veh C5orf56 (11738088_a_at) / RFU OLFML3 (11715873_a_at) / Fold change /veh OLFML3 (11715873_a_at) / RFU LOC100653217 /// NTM (11731650_a_at) / Fold change /veh LOC100653217 /// NTM (11731650_a_at) / RFU MAPK11 (11762145_a_at) / Fold change /veh MAPK11 (11762145_a_at) / RFU FIZ1 (11724087_x_at) / Fold change /veh FIZ1 (11724087_x_at) / RFU OASL (11726364_x_at) / Fold change /veh OASL (11726364_x_at) / RFU SOX15 (11748057_x_at) / Fold change /veh SOX15 (11748057_x_at) / RFU CD79A (11719716_a_at) / Fold change /veh CD79A (11719716_a_at) / RFU HIST1H1D (11736915_at) / Fold change /veh HIST1H1D (11736915_at) / RFU CASKIN2 (11723855_a_at) / Fold change /veh CASKIN2 (11723855_a_at) / RFU LOC730098 (11760151_x_at) / Fold change /veh LOC730098 (11760151_x_at) / RFU OR4N2 (11742367_at) / Fold change /veh OR4N2 (11742367_at) / RFU PRRT2 (11749266_a_at) / Fold change /veh PRRT2 (11749266_a_at) / RFU SNX32 (11753110_a_at) / Fold change /veh SNX32 (11753110_a_at) / RFU CDHR5 (11726645_a_at) / Fold change /veh CDHR5 (11726645_a_at) / RFU RCAN1 (11760418_a_at) / Fold change /veh RCAN1 (11760418_a_at) / RFU FAM167A (11723789_a_at) / Fold change /veh FAM167A (11723789_a_at) / RFU FAM26E (11764081_at) / Fold change /veh FAM26E (11764081_at) / RFU ISYNA1 (11749810_s_at) / Fold change /veh ISYNA1 (11749810_s_at) / RFU ACY1 (11761880_at) / Fold change /veh ACY1 (11761880_at) / RFU 11764098_at / Fold change /veh 11764098_at / RFU SAMD14 (11745864_x_at) / Fold change /veh SAMD14 (11745864_x_at) / RFU NPB (11741838_a_at) / Fold change /veh NPB (11741838_a_at) / RFU TMPRSS6 (11731388_a_at) / Fold change /veh TMPRSS6 (11731388_a_at) / RFU KRTAP10-2 (11738614_at) / Fold change /veh KRTAP10-2 (11738614_at) / RFU ARHGAP8 /// PRR5-ARHGAP8 (11727945_x_at) / Fold change /veh ARHGAP8 /// PRR5-ARHGAP8 (11727945_x_at) / RFU KRTAP5-7 /// NADSYN1 (11734609_at) / Fold change /veh KRTAP5-7 /// NADSYN1 (11734609_at) / RFU RASL12 (11751679_a_at) / Fold change /veh RASL12 (11751679_a_at) / RFU CDKN2B (11736163_a_at) / Fold change /veh CDKN2B (11736163_a_at) / RFU PRF1 (11729649_at) / Fold change /veh PRF1 (11729649_at) / RFU, ZNF638 /// ZNF638-IT1 / Fold change vs veh, ZNF638 /// ZNF638-IT1 / RFU, PANK3 / Fold change vs veh, PANK3 / RFU, SH3YL1 / Fold change vs veh, SH3YL1 / RFU, ZEB2 / Fold change vs veh, ZEB2 / RFU, NRIP1 / Fold change vs veh, NRIP1 / RFU, PTTG1IP / Fold change vs veh, PTTG1IP / RFU, CAPN2 / Fold change vs veh, CAPN2 / RFU, MED14 / Fold change vs veh, MED14 / RFU, SNORA58 / Fold change vs veh, SNORA58 / RFU, C1orf63 / Fold change vs veh, C1orf63 / RFU, LRRFIP1 / Fold change vs veh, LRRFIP1 / RFU, NDUFAF7 / Fold change vs veh, NDUFAF7 / RFU, SLC12A2 / Fold change vs veh, SLC12A2 / RFU, IBTK / Fold change vs veh, IBTK / RFU, ESF1 / Fold change vs veh, ESF1 / Fold change vs veh, TMEM50B / RFU, TAOK1 / Fold change vs veh, TAOK1 / RFU, ACBD3 / Fold change vs veh, ACBD3 / RFU, TMA16 / Fold change vs veh, TMA16 / RFU, RWDD3 / Fold change vs veh, RWDD3 / RFU, BCAT1 / Fold change vs veh, BCAT1 / RFU, EDEM3 / Fold change vs veh, EDEM3 / RFU, TMEM33 / Fold change vs veh, TMEM33 / RFU, WDR75 / Fold change vs veh, WDR75 / RFU, AHCTF1 / Fold change vs veh, AHCTF1 / RFU, TFRC / Fold change vs veh, TFRC / RFU, ZDHHC17 / Fold change vs veh, ZDHHC17 / RFU, NOM1 / Fold change vs veh, NOM1 / RFU, ARL8B / Fold change vs veh, ARL8B / RFU, ZBTB11 / Fold change vs veh, ZBTB11 / RFU, TAMM41 / Fold change vs veh, TAMM41 / RFU, KIAA1704 /// LOC100996395 / Fold change vs veh, KIAA1704 /// LOC100996395 / RFU, ING1 / Fold change vs veh, ING1 / RFU, TRMT61B / Fold change vs veh, TRMT61B / RFU, FUBP3 / Fold change vs veh, FUBP3 / RFU, TP53 / Fold change vs veh, TP53 / RFU, TNKS2 / Fold change vs veh, TNKS2 / RFU, ZFP14 / Fold change vs veh, ZFP14 / RFU, ACTR2 / Fold change vs veh, ACTR2 / RFU, PPP3R1 / Fold change vs veh, PPP3R1 / RFU, PIK3R1 / Fold change vs veh, PIK3R1 / RFU, HNRNPA1 / Fold change vs veh, HNRNPA1 / RFU, RNF170 / Fold change vs veh, RNF170 / RFU, ZNF28 / Fold change vs veh, ZNF28 / RFU, RNGTT / Fold change vs veh, RNGTT / RFU, OGT / Fold change vs veh, OGT / RFU, BRD1 / Fold change vs veh, BRD1 / RFU, MARS / Fold change vs veh, MARS / RFU, ZNF655 / Fold change vs veh, ZNF655 / RFU, FAHD1 / Fold change vs veh, FAHD1 / RFU, BDP1 / Fold change vs veh, BDP1 / RFU, LRRCC1 / Fold change vs veh, LRRCC1 / RFU, ARID1A / Fold change vs veh, ARID1A / RFU, ZNF146 / Fold change vs veh, ZNF146 / RFU, ZNF330 / Fold change vs veh, ZNF330 / RFU, GPN3 / Fold change vs veh, GPN3 / RFU, C9orf123 / Fold change vs veh, C9orf123 / RFU, N4BP2L2 / Fold change vs veh, N4BP2L2 / RFU, ARFIP1 / Fold change vs veh, ARFIP1 / RFU, FAM179B / Fold change vs veh, FAM179B / RFU, BCL10 / Fold change vs veh, BCL10 / RFU, UHRF1BP1L / Fold change vs veh, UHRF1BP1L / RFU, BET1 / Fold change vs veh, BET1 / RFU, CNOT2 / Fold change vs veh, CNOT2 / RFU, ZNF268 / Fold change vs veh, ZNF268 / Fold change vs veh, ZNF507 / RFU, DGCR2 / Fold change vs veh, DGCR2 / RFU, WDSUB1 / Fold change vs veh, WDSUB1 / Fold change vs veh, HSP90B1 /// MIR3652 / RFU, ADSS / Fold change vs veh, ADSS / RFU, GK / Fold change vs veh, GK / RFU, ZNF148 / Fold change vs veh, ZNF148 / RFU, TAF9 / Fold change vs veh, TAF9 / RFU, SLC1A5 / Fold change vs veh, SLC1A5 / RFU, SLMO2 / Fold change vs veh, SLMO2 / RFU, ABCC4 / Fold change vs veh, ABCC4 / RFU, LOC101060439 /// RAP1B / Fold change vs veh, LOC101060439 /// RAP1B / RFU, RFX7 / Fold change vs veh, RFX7 / RFU, GTPBP10 / Fold change vs veh, GTPBP10 / RFU, CNEP1R1 / Fold change vs veh, CNEP1R1 / RFU, BIVM-ERCC5 /// ERCC5 / Fold change vs veh, BIVM-ERCC5 /// ERCC5 / RFU, ILF3 / Fold change vs veh, ILF3 / RFU 11762660_at / Fold change /veh 11762660_at / RFU VCAN (11757783_s_at) / Fold change /veh VCAN (11757783_s_at) / RFU DDX43 (11728927_at) / Fold change /veh DDX43 (11728927_at) / RFU KRT8 (11758188_x_at) / Fold change /veh KRT8 (11758188_x_at) / RFU NKD1 (11759106_at) / Fold change /veh NKD1 (11759106_at) / RFU SRD5A1 (11742802_a_at) / Fold change /veh SRD5A1 (11742802_a_at) / RFU TPSAB1 /// TPSB2 (11721975_s_at) / Fold change /veh TPSAB1 /// TPSB2 (11721975_s_at) / RFU GSTM3 (11746129_a_at) / Fold change /veh GSTM3 (11746129_a_at) / RFU IL23R (11737362_x_at) / Fold change /veh IL23R (11737362_x_at) / RFU TMEM51 (11727254_a_at) / Fold change /veh TMEM51 (11727254_a_at) / RFU PIWIL2 (11732686_x_at) / Fold change /veh PIWIL2 (11732686_x_at) / RFU ORM1 (11744905_x_at) / Fold change /veh ORM1 (11744905_x_at) / RFU CCDC152 (11743942_at) / Fold change /veh CCDC152 (11743942_at) / RFU ECM1 (11717891_a_at) / Fold change /veh ECM1 (11717891_a_at) / RFU IL23R (11748794_a_at) / Fold change /veh IL23R (11748794_a_at) / RFU TNFAIP8L3 (11732012_x_at) / Fold change /veh TNFAIP8L3 (11732012_x_at) / RFU MBOAT4 (11741988_at) / Fold change /veh MBOAT4 (11741988_at) / RFU 11764193_at / Fold change /veh 11764193_at / RFU TMEM53 (11763286_at) / Fold change /veh TMEM53 (11763286_at) / RFU MAGEB2 (11727129_at) / Fold change /veh MAGEB2 (11727129_at) / RFU TMEM200A (11744735_a_at) / Fold change /veh TMEM200A (11744735_a_at) / RFU CCDC152 (11751479_a_at) / Fold change /veh CCDC152 (11751479_a_at) / RFU FAM211A (11726209_a_at) / Fold change /veh FAM211A (11726209_a_at) / RFU RGS16 (11746705_a_at) / Fold change /veh RGS16 (11746705_a_at) / RFU VCAN (11755009_s_at) / Fold change /veh VCAN (11755009_s_at) / RFU RHOB (11743442_s_at) / Fold change /veh RHOB (11743442_s_at) / RFU RGS16 (11720943_a_at) / Fold change /veh RGS16 (11720943_a_at) / RFU RGS16 (11720944_at) / Fold change /veh RGS16 (11720944_at) / RFU, VPS4B / Fold change vs veh, VPS4B / RFU, CREB1 / Fold change vs veh, CREB1 / RFU, DNAJC13 / Fold change vs veh, DNAJC13 / RFU, GNAQ / Fold change vs veh, GNAQ / RFU, CDK5R1 / Fold change vs veh, CDK5R1 / RFU, ZRANB3 / Fold change vs veh, ZRANB3 / RFU, CUL4A / Fold change vs veh, CUL4A / RFU, CCNY / Fold change vs veh, CCNY / RFU, UFL1 / Fold change vs veh, UFL1 / RFU, COG3 / Fold change vs veh, COG3 / RFU, DIAPH2 / Fold change vs veh, DIAPH2 / RFU, SKA2 / Fold change vs veh, SKA2 / RFU, AFF3 / Fold change vs veh, AFF3 / RFU, LMF1 / Fold change vs veh, LMF1 / RFU, IPO11 / Fold change vs veh, IPO11 / RFU, DFFB / Fold change vs veh, DFFB / RFU, FOXP1 / Fold change vs veh, FOXP1 / RFU, CARD8 / Fold change vs veh, CARD8 / RFU, STRN3 / Fold change vs veh, STRN3 / RFU, ADK / Fold change vs veh, ADK / RFU, RASSF2 / Fold change vs veh, RASSF2 / RFU, WIPF1 / Fold change vs veh, WIPF1 / RFU, LARP1B / Fold change vs veh, LARP1B / RFU, RASA1 / Fold change vs veh, RASA1 / RFU, RB1 / Fold change vs veh, RB1 / RFU, PPFIA1 / Fold change vs veh, PPFIA1 / RFU, MAT2A / Fold change vs veh, MAT2A / RFU, CCT5 / Fold change vs veh, CCT5 / RFU, WDR92 / Fold change vs veh, WDR92 / RFU, CUX1 / Fold change vs veh, CUX1 / RFU, TTC7A / Fold change vs veh, TTC7A / RFU, TMEM135 / Fold change vs veh, TMEM135 / RFU, DEPTOR / Fold change vs veh, DEPTOR / RFU, CPM / Fold change vs veh, CPM / RFU, DNAJB6 / Fold change vs veh, DNAJB6 / RFU, CACNA2D3 / Fold change vs veh, CACNA2D3 / RFU, DTX4 / Fold change vs veh, DTX4 / RFU, TFCP2 / Fold change vs veh, TFCP2 / RFU, GMCL1 /// GMCL1P1 / Fold change vs veh, GMCL1 /// GMCL1P1 / RFU, AEBP2 / Fold change vs veh, AEBP2 / RFU, SNHG1 /// SNORD22 /// SNORD25 /// SNORD26 /// SNORD27 /// SNORD28 /// SNORD29 /// SNORD31 / Fold change vs veh, SNHG1 /// SNORD22 /// SNORD25 /// SNORD26 /// SNORD27 /// SNORD28 /// SNORD29 /// SNORD31 / Fold change (Aza/veh), C12orf56 (ProbeSet 11735607_a_at) / Fold change (ACY-1035/veh), C12orf56 (ProbeSet 11735607_a_at) / Fold change (Aza/veh), FGFR1OP (ProbeSet 11751329_s_at) / Fold change (ACY-1035/veh), FGFR1OP (ProbeSet 11751329_s_at) / Fold change (Aza/veh), VPS36 (ProbeSet 11739960_a_at) / Fold change (ACY-1035/veh), VPS36 (ProbeSet 11739960_a_at) / RFU SYPL1 (11715823_x_at) / Fold change /veh SYPL1 (11715823_x_at) / RFU IGFBP7 (11715501_s_at) / Fold change /veh IGFBP7 (11715501_s_at) / RFU REEP3 (11722064_at) / Fold change /veh REEP3 (11722064_at) / RFU IGLL1 (11728026_x_at) / Fold change /veh IGLL1 (11728026_x_at): dose or concentration left out as unconfirmed. The note with it: ProbeSet 11746640_a_at; LIST D.

Consider `Nc1ccc(-c2cccs2)cc1NC(=O)c1ccc2c(c1)cc(C1CC1)n2CCN1CCOCC1` [ACY-1035], for which the “RFU, RASSF2” value is listed as 39.78 RFU.

Source of the values: paper PMC5218480 (PLoS ONE, 2017).
